Source: patent US11130772B2, “CYP-eicosanoid derivatives” (MAX-DELBRUECK-CENTRUM FUER MOLEKULARE MEDIZIN, priority 2014, dated 2021)
“Also recorded” adds a separate entry of the source.

System: spontaneously beating neonatal rat cardiomyocytes (NRCMs)
Assay: Chronotropic effect on spontaneously beating neonatal rat cardiomyocytes (in vitro cardiac arrhythmia model)
Type: cell-based, neonatal Wistar rats
Conditions: 30 nM final concentration, 5 min incubation
From the text: The activity of the n-3 PUFA analogues according to the invention can, for example, be determined in appropriate in vitro and/or in vivo assays. For instance, the biological activity of the n-3 PUFA analogues according to the present invention may be determined using the established cell model of Kang and Leaf (Proc Natl Acad Sci USA, 1994. 91(21): p. 9886-90.) known to those skilled in the art.
In order to measure the biological activities of the novel compounds an established cell model was used (Kang, J. X. and A. Leaf, Effects of long-chain polyunsaturated fatty acids on the contraction of neonatal rat cardiac myocytes. Proc Natl Acad Sci USA, 1994. 91(21): p. 9886-90.). The spontaneously beating neonatal rat cardiomyocytes (NRCMs) are a model system to investigate anti-arrhythmic effects of test-compounds.
Isolation and cultivation of NRCMs were performed as described previously (Wallukat, G; Wollenberger, A. Biomed Biochim Acta. 1987;78:634-639; Wallukat G, Homuth V, Fischer T, Lindschau C, Horstkamp B, Jupner A, Baur E, Nissen E, Vetter K, Neichel D, Dudenhausen J W, Haller H, Luft F C. J Clin Invest. 1999; 103: 945-952). Briefly, neonatal Wistar rats (1-2 days old) were killed in conformity to the recommendations of the Community of Health Service of the City of Berlin and the cardiomyocytes were dissociated from the minced ventricles with a 0.2% solution of crude trypsin. The isolated cells were then cultured as monolayers on the bottom (12.5 cm^2) of Falcon flasks in 2.5 ml of Halle SM 20-I medium equilibrated with humidified air. The medium contained 10% heat-inactivated FCS and 2 μmol/l fluoro-deoxyuridine (Serva, Heidelberg, Germany), the latter to prevent proliferation of non-muscle cells. The NRCMs (2.4×10^6 cells/flask) were cultured at 37° C. in an incubator. After 5 to 7 days, the NRCMs formed spontaneously beating cell clusters. […] On the day of the experiment, the culture medium was replaced by 2.0 ml fresh serum-containing medium. Two hours later, the beating rates were monitored at 37° C. using an inverted microscope equipped with a heating stage. To determine the basal rate, 6 to 8 individual clusters were selected and the number of contractions was counted for 15 sec. After that, the compound to be tested was added to the culture and the beating rate of the same clusters was monitored 5 min later again. Based on the difference between the basal and compound-induced beating rate of the individual clusters, the chronotropic effects (Δ beats/min) were calculated and are given as mean±SE values. N refers to the number of clusters monitored which originated, in general, from at least three independent NRCM cultures.
All compounds tested were added to the NRCMs at a final concentration of 30 nM and the measurement was performed after 5 min of incubation; except EPA that was used at a final concentration of 3.3 μM and the effect was monitored after 30 min of incubation.

Row | Molecule | chronotropic effect on spontaneous beating rate (in words) | chronotropic effect (Δ beats/min), mean±SE (n=12 clusters) [beats/min]
1 | CCC1OC1C/C=C\C/C=C\C/C=C\C/C=C\CCCC(=O)O (stereo not shown) [17,18-EEQ, 17,18-epoxyeicosatetraenoic acid, reference compound] | negative chronotropic effect | 
2 | CNC(=O)C(=O)NCCCC/C=C\CCCCCCCCCC1=NOS(=O)N1 (stereo not shown) [C38, N^1-methyl-N^2-(15-(2-oxido-3H-1,2,3,5-oxathiadiazol-4-yl)pentadec-5(Z)-en-1-yl)oxalamide] | negative chronotropic effect | 
3 | CNC(=O)C(=O)NCCCC/C=C\CCCCCCCCCP(=O)([O-])[O-].[Na+].[Na+] [C41, disodium 15-(2-(methylamino)-2-oxoacetamido)pentadec-10(Z)-enylphosphonate] | negative chronotropic effect | 
4 | CNC(=O)C(=O)NCCCC/C=C\CCCCCCCCCS(=O)(=O)[O-].[Na+] [C42, Sodium 15-(2-(methylamino)-2-oxoacetamido)pentadec-10(Z)-en-1-sulfonate] | negative chronotropic effect | 
5 | CNC(=O)C(=O)NCCCC/C=C\CCCCCCCCCSc1ccccc1O [C44, (Z)—N^1-(15-((2-hydroxyphenyl)thio)pentadec-5-en-1-yl)-N^2-methyloxalamide] | lowest activity; also recorded: negative chronotropic effect | −7.5±4.5
6 | CNC(=O)C(=O)NCCCc1ccccc1CCCCCCP(=O)([O-])[O-].[Na+].[Na+] [C48] | negative chronotropic effects | 
7 | CNC(=O)C(=O)NCCCCc1ccccc1CCCCCCCCCP(=O)([O-])[O-].[Na+].[Na+] [C49] | negative chronotropic effects | 
8 | CNC(=O)C(=O)NCCCC/C=C\CCCCCCCCCC(=O)NS(=O)(=O)c1ccccc1 [C50, N^1-(16-phenylsulfonamido-16-oxohexadec-5(Z)-en-1-yl)-N^2-methyloxalamide] | negative chronotropic effect | 
9 | N^1-(15-((2-acetamidobenzo[d]thiazol-7-yl)oxy)pentadec-5(Z)-en-1-yl)-N^2-methyloxalamide [C43] | negative chronotropic effect | 
